# Reference: patent US20210161147A1, “BROAD SPECTRUM COSMETIC PRESERVATIVE SYSTEM” (priority 2019, published 2021)
# System: microbes (bacteria and fungi)
# Assay: USP 51, Antimicrobial Effectiveness Test
# Type: cell-based
# Details: combined with 12.5 ppm colloidal silver; aqueous solution containing seaweed extract
smiles,measurement,value
"CS(C)(=O)=O [MSM, methylsulfonylmethane]",sufficient concentration of MSM for effective cosmetic preservation per USP 51,10 % (w/w)
